Reference: ChEMBL document CHEMBL5465560, “Selectivity Literature for EUbOPEN Chemogenomic Library” (2024)
One block for each compound: values may come before it.

What was measured:
[1] = tested on: T1, Receptor-type tyrosine-protein kinase FLT3 (Homo sapiens), P36888 [N841I]; experiment: Selectivity interaction (KinomeScan (DiscoverX)) EUB0000607a FLT3; conditions: at 10 µM
T1 sequence (whole entry): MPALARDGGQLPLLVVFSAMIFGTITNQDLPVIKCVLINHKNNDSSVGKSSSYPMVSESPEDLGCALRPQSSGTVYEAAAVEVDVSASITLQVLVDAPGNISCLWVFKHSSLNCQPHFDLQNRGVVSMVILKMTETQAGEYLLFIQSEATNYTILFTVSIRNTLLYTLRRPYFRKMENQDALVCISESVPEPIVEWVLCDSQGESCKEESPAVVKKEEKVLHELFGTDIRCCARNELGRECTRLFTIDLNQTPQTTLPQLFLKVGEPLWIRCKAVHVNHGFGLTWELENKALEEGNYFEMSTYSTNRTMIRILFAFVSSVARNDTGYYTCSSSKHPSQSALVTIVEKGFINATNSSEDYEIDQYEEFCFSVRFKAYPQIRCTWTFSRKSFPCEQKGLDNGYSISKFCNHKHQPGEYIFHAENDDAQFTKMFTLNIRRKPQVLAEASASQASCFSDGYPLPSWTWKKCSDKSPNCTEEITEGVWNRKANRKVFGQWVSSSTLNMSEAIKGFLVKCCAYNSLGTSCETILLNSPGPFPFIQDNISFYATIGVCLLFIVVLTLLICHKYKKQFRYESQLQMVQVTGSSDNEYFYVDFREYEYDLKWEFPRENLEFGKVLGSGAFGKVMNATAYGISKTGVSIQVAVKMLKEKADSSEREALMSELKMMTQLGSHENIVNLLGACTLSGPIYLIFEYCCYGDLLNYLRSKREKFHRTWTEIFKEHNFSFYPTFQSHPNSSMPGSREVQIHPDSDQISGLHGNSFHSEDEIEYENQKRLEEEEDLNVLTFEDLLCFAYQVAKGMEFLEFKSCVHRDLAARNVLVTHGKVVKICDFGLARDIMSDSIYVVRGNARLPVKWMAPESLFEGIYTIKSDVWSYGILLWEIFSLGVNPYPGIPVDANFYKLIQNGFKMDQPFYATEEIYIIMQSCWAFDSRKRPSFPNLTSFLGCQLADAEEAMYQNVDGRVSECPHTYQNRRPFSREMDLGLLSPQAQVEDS

[2] = target: T2, Mitogen-activated protein kinase kinase kinase 5 (Homo sapiens) (UniProt Q99683); experiment: Selectivity interaction (ActivX KiNativ screen (ex vivo kinase selectivity in human PBMCs)) EUB0001619a MAP3K5; assay type: cell-based; conditions: PBMC, at 1 µM
T2 sequence (whole entry): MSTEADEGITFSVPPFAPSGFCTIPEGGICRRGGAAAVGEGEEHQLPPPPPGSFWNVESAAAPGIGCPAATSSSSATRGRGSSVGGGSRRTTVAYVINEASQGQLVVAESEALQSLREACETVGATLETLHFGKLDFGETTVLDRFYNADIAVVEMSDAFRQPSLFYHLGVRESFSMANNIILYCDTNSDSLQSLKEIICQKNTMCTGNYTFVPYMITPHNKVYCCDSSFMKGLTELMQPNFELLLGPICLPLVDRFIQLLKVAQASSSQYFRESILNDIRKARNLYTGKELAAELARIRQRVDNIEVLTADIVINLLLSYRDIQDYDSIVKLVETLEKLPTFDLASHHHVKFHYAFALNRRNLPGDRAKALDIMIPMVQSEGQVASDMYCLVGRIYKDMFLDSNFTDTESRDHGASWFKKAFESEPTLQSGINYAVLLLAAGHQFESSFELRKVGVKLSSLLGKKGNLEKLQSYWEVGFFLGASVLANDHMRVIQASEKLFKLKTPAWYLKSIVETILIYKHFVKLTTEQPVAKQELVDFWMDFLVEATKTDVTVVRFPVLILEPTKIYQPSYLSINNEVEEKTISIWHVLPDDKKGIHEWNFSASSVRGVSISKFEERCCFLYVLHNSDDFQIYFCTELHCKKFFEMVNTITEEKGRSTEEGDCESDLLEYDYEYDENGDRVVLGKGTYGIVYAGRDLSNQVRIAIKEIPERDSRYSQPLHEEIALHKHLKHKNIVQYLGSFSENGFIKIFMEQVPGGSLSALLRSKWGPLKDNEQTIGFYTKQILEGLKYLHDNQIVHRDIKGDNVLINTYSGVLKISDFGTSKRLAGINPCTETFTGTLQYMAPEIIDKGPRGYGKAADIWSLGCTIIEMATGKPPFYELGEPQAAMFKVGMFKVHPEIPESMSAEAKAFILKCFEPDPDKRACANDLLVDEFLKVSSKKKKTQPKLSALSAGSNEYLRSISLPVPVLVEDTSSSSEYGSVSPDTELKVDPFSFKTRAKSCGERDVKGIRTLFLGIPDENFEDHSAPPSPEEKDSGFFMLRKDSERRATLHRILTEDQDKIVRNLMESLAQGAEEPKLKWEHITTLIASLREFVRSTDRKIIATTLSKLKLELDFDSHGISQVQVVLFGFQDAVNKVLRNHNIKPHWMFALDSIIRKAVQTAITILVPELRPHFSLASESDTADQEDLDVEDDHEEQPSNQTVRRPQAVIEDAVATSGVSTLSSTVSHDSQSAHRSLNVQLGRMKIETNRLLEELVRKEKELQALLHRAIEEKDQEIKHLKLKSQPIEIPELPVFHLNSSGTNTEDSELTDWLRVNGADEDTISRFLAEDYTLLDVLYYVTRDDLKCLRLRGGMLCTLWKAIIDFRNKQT

[3] = target: T3, Dual specificity tyrosine-phosphorylation-regulated kinase 3 (Homo sapiens) (UniProt O43781); experiment: Selectivity interaction (ProQinase) EUB0000171b DYRK3
T3 sequence (whole entry): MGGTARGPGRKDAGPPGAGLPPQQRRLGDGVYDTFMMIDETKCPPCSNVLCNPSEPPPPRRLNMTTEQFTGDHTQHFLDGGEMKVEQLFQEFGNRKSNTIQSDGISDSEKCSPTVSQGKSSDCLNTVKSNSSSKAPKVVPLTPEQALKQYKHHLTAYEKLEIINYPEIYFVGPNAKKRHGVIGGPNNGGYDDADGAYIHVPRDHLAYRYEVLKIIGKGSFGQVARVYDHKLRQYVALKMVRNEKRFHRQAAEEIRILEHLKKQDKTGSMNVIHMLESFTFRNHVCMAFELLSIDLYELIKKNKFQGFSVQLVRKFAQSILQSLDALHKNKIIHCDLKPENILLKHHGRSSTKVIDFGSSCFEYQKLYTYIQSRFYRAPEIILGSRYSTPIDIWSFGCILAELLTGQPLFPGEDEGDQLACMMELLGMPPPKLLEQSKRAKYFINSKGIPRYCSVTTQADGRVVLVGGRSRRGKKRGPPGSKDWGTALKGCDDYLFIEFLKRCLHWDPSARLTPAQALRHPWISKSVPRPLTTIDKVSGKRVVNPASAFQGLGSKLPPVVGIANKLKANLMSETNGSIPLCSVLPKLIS

SMILES: CNC(=O)Nc1ccc(-c2nc(N3CC4CCC(C3)O4)c3cnn(C4CCC5(CC4)OCCO5)c3n2)cc1
% of control [1]: 89%

SMILES: N#Cc1cccc(-c2c[nH]c3ncnc(N4CCOCC4)c23)c1
% of inhibition [2]: 21%

% of control ([3]; at 1 µM): 82%
% of control ([3]; at 5 µM): 39%
SMILES: C=CC(=O)Nc1cccc(C(=O)Nc2ccc(Nc3cc(-c4[nH]c(SC)nc4C)ccn3)cc2)c1
